Measurements reported in patent publication US9186360B2, “Treatment of respiratory disorders using TRPA1 antagonists” (GLENMARK PHARMACEUTICALS S.A., priority 2011, dated 2015).

Legend:
Assay type in all cases: cell-based
human TRPV1 = human TRPV1 (Homo sapiens (Human), UniProt Q8NER1); assay: Radiometric calcium selectivity assay, CHO cells expressing human TRPV1 (capsaicin); details: read-out: IC50 values hTRPV1
Experimental: (§1) For selectivity screening, CHO cells stably expressing human TRPV1, human TRPV3, human TRPV4, or human TRPM8 were generated in-house and maintained in DMEM F-12 supplemented with 10% FBS and G418. All the cell types were cultured at 37° C. in humidified air containing 5% CO2. Radiometric calcium assay was performed as described above with some minor modifications. Assay was carried out in total volume of 200 μl at 30° C. (for TRPV1), 32° C. (for TRPV3) and 25° C. (for TRPV4 and TRPM8). Agonists used for selectivity screening of the different TRPs are: Capsaicin for TRPV1,2-aminoethoxydiphenyl borate for TRPV3, 4α-phorbol 12,13-didecanoate for TRPV4 and Icilin for TRPM8. After 2-5 minutes of agonist treatment, drug was washed and lysed in lysis buffer as mentioned above. Radioactivity in the lysate was measured in Packard Top count after addition of liquid scintillant.

human TRPA1 = human TRPA1 (Homo sapiens (Human), UniProt O75762); assay: 45Calcium uptake assay, AITC induced, human TRPA1 expressing CHO cells; details: AITC 30 micromolar, read-out: IC50 values hTRPA1
Experimental: As contemplated herein, the IC50 value is measured by the following method. The inhibition of TRPA1 receptor activation is measured as inhibition of allylisothiocyanate (AITC) induced cellular uptake of radioactive calcium. Test solution of test compound is prepared in a suitable solvent using appropriate method. Human TRPA1 expressing CHO cells are grown in suitable medium. Cells are treated with test compounds followed by addition of AITC. Cells are washed and lysed. Radioactivity in the lysate is measured in Packard Top count after addition of liquid scintillant. The concentration response curves for compounds are plotted as a % of maximal response obtained in the absence of test antagonist, and the IC50 values are calculated from such concentration response curve by nonlinear regression analysis using GraphPad PRISM software.
The illustrative TRPA1 antagonists of the present invention were screened for TRPA1 activity according to a modified procedure described in Tóth, A. et al., Life Sciences 2003, 73, 487-498. The screening of the compounds can be carried out by other methods and procedures known to persons skilled in the art.
Screening for TRPA1 Antagonist Using the 45Calcium Uptake Assay:
The inhibition of TRPA1 receptor activation was measured as inhibition of allylisothiocyanate (AITC) induced cellular uptake of radioactive calcium. Test compounds were dissolved in DMSO to prepare 10 mM stock solution and then diluted using plain medium with 0.1% BSA and 1.8 mM CaCl2 to get desired concentration. Final concentration of DMSO in the reaction was 0.5% (v/v). Human TRPA1 expressing CHO cells were grown in F-12 DMEM medium with 10% FBS, 1% penicillin-streptomycin solution, and 400 μg/ml of G-418. Cells were seeded 24 h prior to the assay in 96 well plates so as to get ˜50,000 cells per well on the day of experiment. Cells were treated with test compounds for 10 min followed by addition of AITC at a final concentration of 30 micromolar and 5 μCi/ml 45Ca+2 for 3 min at 25° C. Cells were washed and lysed using buffer containing 1% Triton X-100, 0.1% deoxycholate and 0.1% SDS. Radioactivity in the lysate was measured in Packard Top count after addition of liquid scintillant.
Concentration response curves were plotted as a % of maximal response obtained in the absence of test antagonist. IC50 value was calculated from concentration response curve by nonlinear regression analysis using GraphPad PRISM software.

human TRPV4 = human TRPV4 (Homo sapiens (Human), UniProt Q9HBA0); assay: Radiometric calcium selectivity assay, CHO cells expressing human TRPV4 (4α-phorbol 12,13-didecanoate); details: read-out: IC50 values hTRPV4
Experimental: as §1

human TRPV3 = human TRPV3 (Homo sapiens (Human), UniProt Q8NET8); assay: Radiometric calcium selectivity assay, CHO cells expressing human TRPV3 (2-aminoethoxydiphenyl borate); details: read-out: IC50 values hTRPV3
Experimental: as §1

human TRPM8 = human TRPM8 (Homo sapiens (Human), UniProt Q7Z2W7); assay: Radiometric calcium selectivity assay, CHO cells expressing human TRPM8 (icilin); details: read-out: IC50 values hTRPM8
Experimental: as §1

Chain of human TRPV3 (Q8NET8 whole entry): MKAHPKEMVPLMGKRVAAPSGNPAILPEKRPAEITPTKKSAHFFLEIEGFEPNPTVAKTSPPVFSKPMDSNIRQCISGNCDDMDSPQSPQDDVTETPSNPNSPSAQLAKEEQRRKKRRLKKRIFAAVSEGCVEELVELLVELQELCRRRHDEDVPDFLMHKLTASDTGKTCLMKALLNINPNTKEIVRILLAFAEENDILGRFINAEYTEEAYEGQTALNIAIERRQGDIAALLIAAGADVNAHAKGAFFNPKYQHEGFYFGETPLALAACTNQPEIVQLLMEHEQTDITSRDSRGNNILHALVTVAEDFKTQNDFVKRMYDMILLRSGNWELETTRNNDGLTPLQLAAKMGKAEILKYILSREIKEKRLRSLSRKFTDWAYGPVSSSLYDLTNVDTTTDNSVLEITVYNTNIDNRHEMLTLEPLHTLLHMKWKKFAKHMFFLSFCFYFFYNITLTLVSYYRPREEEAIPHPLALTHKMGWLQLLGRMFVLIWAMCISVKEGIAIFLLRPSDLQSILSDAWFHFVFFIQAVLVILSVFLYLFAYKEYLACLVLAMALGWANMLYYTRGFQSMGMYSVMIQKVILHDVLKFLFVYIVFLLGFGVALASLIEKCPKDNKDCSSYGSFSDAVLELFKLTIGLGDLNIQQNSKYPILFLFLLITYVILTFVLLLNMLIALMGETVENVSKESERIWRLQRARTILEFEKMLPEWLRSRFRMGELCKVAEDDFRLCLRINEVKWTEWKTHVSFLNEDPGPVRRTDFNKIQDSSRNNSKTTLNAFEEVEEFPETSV
Chain of human TRPV4 (Q9HBA0 whole entry): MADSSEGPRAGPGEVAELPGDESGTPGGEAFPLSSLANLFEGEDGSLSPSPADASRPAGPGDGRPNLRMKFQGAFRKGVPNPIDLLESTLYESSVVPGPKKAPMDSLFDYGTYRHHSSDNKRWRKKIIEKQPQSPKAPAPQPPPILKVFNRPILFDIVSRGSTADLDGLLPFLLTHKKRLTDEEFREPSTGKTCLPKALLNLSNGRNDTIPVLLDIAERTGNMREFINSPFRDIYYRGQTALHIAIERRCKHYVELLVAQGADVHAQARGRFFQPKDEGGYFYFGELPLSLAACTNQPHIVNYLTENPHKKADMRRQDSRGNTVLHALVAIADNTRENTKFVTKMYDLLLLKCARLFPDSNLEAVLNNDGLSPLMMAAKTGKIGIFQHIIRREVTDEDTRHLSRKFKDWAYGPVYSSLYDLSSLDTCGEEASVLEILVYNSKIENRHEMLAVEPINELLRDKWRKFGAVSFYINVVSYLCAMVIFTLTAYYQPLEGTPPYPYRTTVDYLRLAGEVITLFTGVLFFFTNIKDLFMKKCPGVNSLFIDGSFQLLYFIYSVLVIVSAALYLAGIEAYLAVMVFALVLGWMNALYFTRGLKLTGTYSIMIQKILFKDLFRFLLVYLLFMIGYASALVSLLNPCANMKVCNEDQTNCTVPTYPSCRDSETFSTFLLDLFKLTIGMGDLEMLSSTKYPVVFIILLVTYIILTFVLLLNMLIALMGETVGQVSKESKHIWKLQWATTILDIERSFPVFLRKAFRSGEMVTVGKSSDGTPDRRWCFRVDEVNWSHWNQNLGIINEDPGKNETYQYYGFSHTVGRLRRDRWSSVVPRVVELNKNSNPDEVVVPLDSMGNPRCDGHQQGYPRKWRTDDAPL
Chain of human TRPV1 (Q8NER1 whole entry): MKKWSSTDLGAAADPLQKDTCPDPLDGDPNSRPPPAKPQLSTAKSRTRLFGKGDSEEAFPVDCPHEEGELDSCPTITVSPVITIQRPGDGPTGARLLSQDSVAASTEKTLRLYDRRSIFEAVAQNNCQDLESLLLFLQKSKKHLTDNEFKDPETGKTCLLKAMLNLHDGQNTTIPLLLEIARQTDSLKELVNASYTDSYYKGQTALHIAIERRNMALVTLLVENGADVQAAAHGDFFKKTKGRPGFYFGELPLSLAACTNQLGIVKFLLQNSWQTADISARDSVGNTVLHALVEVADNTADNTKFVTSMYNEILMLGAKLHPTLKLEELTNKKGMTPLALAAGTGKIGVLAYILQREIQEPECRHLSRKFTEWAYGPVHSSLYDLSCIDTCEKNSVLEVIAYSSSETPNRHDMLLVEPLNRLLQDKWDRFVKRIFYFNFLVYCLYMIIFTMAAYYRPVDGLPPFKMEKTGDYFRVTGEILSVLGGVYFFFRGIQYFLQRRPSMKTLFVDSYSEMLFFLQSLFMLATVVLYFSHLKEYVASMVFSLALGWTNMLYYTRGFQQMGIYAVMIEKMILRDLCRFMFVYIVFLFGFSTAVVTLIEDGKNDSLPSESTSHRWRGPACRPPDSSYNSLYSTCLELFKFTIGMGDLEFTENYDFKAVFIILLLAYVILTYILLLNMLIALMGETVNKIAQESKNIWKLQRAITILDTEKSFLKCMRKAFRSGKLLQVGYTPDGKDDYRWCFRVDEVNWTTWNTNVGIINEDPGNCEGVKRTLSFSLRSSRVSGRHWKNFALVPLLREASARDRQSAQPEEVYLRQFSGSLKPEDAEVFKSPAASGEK
Chain of human TRPM8 (Q7Z2W7 whole entry): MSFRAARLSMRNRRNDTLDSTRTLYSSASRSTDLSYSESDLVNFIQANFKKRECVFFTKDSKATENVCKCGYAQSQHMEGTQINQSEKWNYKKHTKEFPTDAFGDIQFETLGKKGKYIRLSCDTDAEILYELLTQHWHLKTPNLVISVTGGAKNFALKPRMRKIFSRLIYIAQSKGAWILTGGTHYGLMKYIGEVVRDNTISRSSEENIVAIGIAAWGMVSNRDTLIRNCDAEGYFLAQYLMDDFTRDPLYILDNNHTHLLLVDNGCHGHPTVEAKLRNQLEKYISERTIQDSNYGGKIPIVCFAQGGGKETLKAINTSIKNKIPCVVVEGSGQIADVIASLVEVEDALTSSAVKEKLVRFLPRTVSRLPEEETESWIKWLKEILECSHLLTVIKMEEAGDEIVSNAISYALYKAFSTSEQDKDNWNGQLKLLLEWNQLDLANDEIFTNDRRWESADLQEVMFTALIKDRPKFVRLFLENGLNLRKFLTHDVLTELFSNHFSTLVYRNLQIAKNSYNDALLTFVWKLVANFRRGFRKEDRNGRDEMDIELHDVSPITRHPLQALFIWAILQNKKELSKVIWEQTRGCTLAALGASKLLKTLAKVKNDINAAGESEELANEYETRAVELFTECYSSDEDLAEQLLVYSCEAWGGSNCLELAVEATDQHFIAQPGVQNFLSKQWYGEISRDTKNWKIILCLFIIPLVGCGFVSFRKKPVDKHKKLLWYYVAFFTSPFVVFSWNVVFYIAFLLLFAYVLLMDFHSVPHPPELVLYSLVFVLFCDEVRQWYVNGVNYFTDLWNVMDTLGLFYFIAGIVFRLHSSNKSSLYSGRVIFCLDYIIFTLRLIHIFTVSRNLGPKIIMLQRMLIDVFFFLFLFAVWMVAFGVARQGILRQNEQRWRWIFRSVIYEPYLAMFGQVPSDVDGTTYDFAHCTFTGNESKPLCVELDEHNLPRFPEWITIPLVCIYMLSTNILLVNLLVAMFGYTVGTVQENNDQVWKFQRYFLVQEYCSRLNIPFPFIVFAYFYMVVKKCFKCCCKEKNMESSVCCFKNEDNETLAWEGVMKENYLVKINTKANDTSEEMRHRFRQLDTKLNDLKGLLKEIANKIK
Chain of human TRPA1 (O75762 whole entry): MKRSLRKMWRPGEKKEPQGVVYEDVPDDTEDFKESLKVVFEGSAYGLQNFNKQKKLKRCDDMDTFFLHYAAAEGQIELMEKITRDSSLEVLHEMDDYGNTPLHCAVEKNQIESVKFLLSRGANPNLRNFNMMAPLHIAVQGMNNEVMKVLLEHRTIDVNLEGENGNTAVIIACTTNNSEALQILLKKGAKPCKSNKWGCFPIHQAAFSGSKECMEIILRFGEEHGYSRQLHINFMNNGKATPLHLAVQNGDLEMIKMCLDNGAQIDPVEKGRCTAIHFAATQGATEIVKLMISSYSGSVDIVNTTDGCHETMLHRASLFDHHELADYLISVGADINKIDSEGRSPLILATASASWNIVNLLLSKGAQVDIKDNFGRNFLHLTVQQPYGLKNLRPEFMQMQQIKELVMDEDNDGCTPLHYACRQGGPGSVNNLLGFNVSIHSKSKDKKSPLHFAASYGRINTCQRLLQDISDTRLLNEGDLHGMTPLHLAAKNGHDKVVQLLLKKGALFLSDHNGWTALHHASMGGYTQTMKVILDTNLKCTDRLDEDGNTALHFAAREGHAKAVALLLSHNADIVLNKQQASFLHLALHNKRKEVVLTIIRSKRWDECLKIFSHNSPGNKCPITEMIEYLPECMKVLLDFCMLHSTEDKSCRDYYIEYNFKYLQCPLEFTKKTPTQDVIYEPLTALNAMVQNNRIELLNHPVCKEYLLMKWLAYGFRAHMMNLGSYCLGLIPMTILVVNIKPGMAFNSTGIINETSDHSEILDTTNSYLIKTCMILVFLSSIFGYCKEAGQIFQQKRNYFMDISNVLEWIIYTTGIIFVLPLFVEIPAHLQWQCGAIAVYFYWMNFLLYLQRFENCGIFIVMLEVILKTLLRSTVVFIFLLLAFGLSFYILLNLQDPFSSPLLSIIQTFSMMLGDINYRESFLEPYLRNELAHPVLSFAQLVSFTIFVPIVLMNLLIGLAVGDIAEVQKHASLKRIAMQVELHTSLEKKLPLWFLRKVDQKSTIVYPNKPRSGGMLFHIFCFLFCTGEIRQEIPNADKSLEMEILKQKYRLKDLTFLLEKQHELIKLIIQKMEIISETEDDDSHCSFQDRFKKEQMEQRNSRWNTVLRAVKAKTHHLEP

| IC50 (human TRPA1) [nM] | IC50 (human TRPV4) [nM] | Compound | IC50 (human TRPV1) [nM] | IC50 (human TRPV3) [nM] | IC50 (human TRPM8) [nM] |
| --- | --- | --- | --- | --- | --- |
| 921 | > 10000 | CN1C(=O)c2c(ncn2CC(=O)Nc2nc(-c3ccc(Br)cc3)cs2)N2CCN=C12 [Compound 1] | > 10000 | > 10000 | > 10000 |
| 382 | 3840 | CN1C(=O)c2c(ncn2CC(=O)Nc2nc(-c3ccc(C(C)(C)C)cc3)cs2)N2CCN=C12 [Compound 2] | > 10000 | > 10000 | > 10000 |
| 73.3 | 969 | Cn1c(=O)c2c(CC(=O)Nc3nc(-c4ccc(Br)cc4)cs3)cccc2n(C)c1=O [Compound 3] | > 10000 | > 10000 | > 10000 |
| 47.4 | 1870 | Cn1c(=O)c2c(CC(=O)Nc3nc(-c4cccc(C(F)(F)F)c4)cs3)cccc2n(C)c1=O [Compound 7] | > 10000 | 2100 | > 10000 |
| 46.7 | > 10000 | Cn1c(=O)c2c(CC(=O)Nc3nc(-c4ccc(C5CCCCC5)cc4)cs3)cccc2n(C)c1=O [Compound 10] | > 10000 | > 10000 | > 10000 |
| 46.3 | 1500 | Cn1c(=O)c2c(CC(=O)Nc3nc(-c4ccc(C(F)(F)F)cc4)cs3)cccc2n(C)c1=O [Compound 11] | > 10000 | > 10000 | > 10000 |
| 48.2 | 2800 | Cn1c(=O)c2c(CC(=O)Nc3nc(-c4ccc(F)cc4F)cs3)cccc2n(C)c1=O [Compound 13] | > 10000 | > 1000 | > 10000 |
| 13.4 | 1320 | Cn1c(=O)c2c(CC(=O)Nc3nc(-c4ccc(C(F)(F)F)c(F)c4)cs3)cccc2n(C)c1=O [Compound 18] | > 10000 | > 10000 | > 10000 |
| 26.1 | 1630 | Cn1c(=O)c2c(CC(=O)Nc3nc(-c4ccc(C(F)(F)F)cc4F)cs3)cccc2n(C)c1=O [Compound 19] | > 10000 | > 1000 | > 10000 |
| 20.1 | 1670 | Cn1c(=O)c2c(CC(=O)Nc3nc(-c4ccc(F)c(C(F)(F)F)c4)cs3)cccc2n(C)c1=O [Compound 20] | > 10000 | > 1000 | > 10000 |
| 48.2 | 520 | Cn1c(=O)c2c(CC(=O)Nc3nc(-c4ccc(Cl)c(C(F)(F)F)c4)cs3)cccc2n(C)c1=O [Compound 21] | > 1000 | > 10000 | > 10000 |
| 138 | > 10000 | Cn1c(=O)c2c(CC(=O)Nc3nc(-c4cc(Cl)ccc4F)cs3)cccc2n(C)c1=O [Compound 24] | > 10000 | > 1000 | > 10000 |
| 65.5 | > 10000 | Cn1c(=O)c2c(CC(=O)Nc3nc(-c4cccc(F)c4F)cs3)cccc2n(C)c1=O [Compound 27] | > 10000 | > 10000 | > 10000 |
| 5.06 | 1470 | Cn1c(=O)c2c(CC(=O)Nc3nc(-c4ccc(C(F)(F)F)c(F)c4)cs3)c(Cl)oc2n(C)c1=O [Compound 99] | – | – | – |
| 5.15 | > 10000 | Cn1c(=O)c2c(CC(=O)Nc3nc(-c4cc(F)cc(C(F)(F)F)c4)cs3)c(Cl)oc2n(C)c1=O [Compound 100] | – | – | – |
| 7.67 | 1350 | Cn1c(=O)c2c(CC(=O)Nc3nc(-c4ccc(OC(F)(F)F)c(F)c4)cs3)c(Cl)oc2n(C)c1=O [Compound 102] | – | – | – |
| 27.4 | 4020 | Cn1c(=O)c2c(CC(=O)Nc3nc(-c4ccc(F)c(OC(F)(F)F)c4)cs3)c(Cl)oc2n(C)c1=O [Compound 103] | – | – | – |
| 7.58 | 1810 | Cn1c(=O)c2c(CC(=O)Nc3nc(-c4ccc(C(F)(F)F)c(F)c4F)cs3)c(Cl)oc2n(C)c1=O [Compound 104] | – | – | – |

| Compound | IC50 (human TRPA1) [nM] | IC50 (human TRPV4) [nM] | IC50 (human TRPV1) [nM] | IC50 (human TRPV3) [nM] | IC50 (human TRPM8) [nM] |
| --- | --- | --- | --- | --- | --- |
| Cn1c(=O)c2c(CC(=O)Nc3nc(-c4ccc(Cl)c(Cl)c4)cs3)cccc2n(C)c1=O [Compound 4] | 98.3 | > 1000 | > 10000 | > 10000 | > 10000 |
| Cn1c(=O)c2c(CC(=O)Nc3nc(-c4ccc(I)cc4)cs3)cccc2n(C)c1=O [Compound 5] | 66.3 | > 1000 | > 10000 | > 10000 | > 10000 |
| Cc1ccc(-c2csc(NC(=O)Cc3cccc4c3c(=O)n(C)c(=O)n4C)n2)cc1 [Compound 6] | 97.4 | > 1000 | > 10000 | > 10000 | > 10000 |
| Cn1c(=O)c2c(CC(=O)Nc3ccn(-c4ccc(Cl)cc4)n3)cccc2n(C)c1=O [Compound 8] | 55 | > 1000 | > 10000 | > 10000 | > 10000 |
| Cn1c(=O)c2c(CC(=O)Nc3nc(-c4cccc(Cl)c4)cs3)cccc2n(C)c1=O [Compound 9] | 102 | > 1000 | > 10000 | > 1000 | > 10000 |
| Cn1c(=O)c2c(CC(=O)Nc3nc(-c4ccc(C(C)(C)C)cc4)cs3)cccc2n(C)c1=O [Compound 12] | 51.7 | > 1000 | > 10000 | > 10000 | > 10000 |
| CC(C)c1ccc(-c2csc(NC(=O)Cc3cccc4c3c(=O)n(C)c(=O)n4C)n2)cc1 [Compound 14] | 60.4 | > 1000 | > 10000 | > 1000 | > 10000 |
| Cn1c(=O)c2c(CC(=O)Nc3nc(-c4ccc(F)c(Cl)c4)cs3)cccc2n(C)c1=O [Compound 15] | 53.6 | > 1000 | > 10000 | > 1000 | > 10000 |
| CCc1ccc(-c2csc(NC(=O)Cc3cccc4c3c(=O)n(C)c(=O)n4C)n2)cc1 [Compound 17] | 56 | > 1000 | > 10000 | > 10000 | > 10000 |
| CC(C)CCOc1ccc(-c2csc(NC(=O)Cc3cccc4c3c(=O)n(C)c(=O)n4C)n2)cc1 [Compound 22] | 79.8 | > 1000 | > 10000 | > 10000 | > 10000 |
| CC(C)COc1ccc(-c2csc(NC(=O)Cc3cccc4c3c(=O)n(C)c(=O)n4C)n2)cc1 [Compound 23] | 43.9 | > 1000 | > 10000 | > 10000 | > 10000 |
| Cn1c(=O)c2c(CC(=O)Nc3nc(-c4cccc(Cl)c4F)cs3)cccc2n(C)c1=O [Compound 25] | 58.5 | > 1000 | > 10000 | > 1000 | > 10000 |
| Cn1c(=O)c2c(CC(=O)Nc3nc(-c4cccc(OC(F)(F)F)c4)cs3)cccc2n(C)c1=O [Compound 26] | 47.9 | > 1000 | > 10000 | > 1000 | > 10000 |
| CCC(=N\O)/C(C)=C/c1ccc(F)cc1 [Compound 89] | – | > 10000 | > 10000 | > 10000 | > 10000 |
| Cn1c(=O)c2c(CC(=O)Nc3nc(-c4ccc(F)c(C(F)(F)F)c4F)cs3)c(Cl)oc2n(C)c1=O [Compound 101] | 10.1 | > 1000 | – | – | – |
